From US11427615B2, “Peptide compound and application thereof, and composition containing peptide compound” (XDCEXPLORER (SHANGHAI) CO., LTD., priority 2017, dated 2022)
Non-standard residues stand in square brackets, D forms with d. Residues, ends and D or L forms follow the SMILES beside them. *: point of attachment. dPhe(2,4-Cl2) = N[C@H](Cc1ccc(Cl)cc1Cl)C(=O)O; Dnp = O=[N+]([O-])c1ccc(*)c([N+](=O)[O-])c1; dAla(2-furyl) = N[C@H](Cc1ccco1)C(=O)O; Arg(Me) = CNC(=N)NCCC[C@H](N)C(=O)O; Hyp = O=C(O)[C@@H]1C[C@@H](O)CN1; 2Pal = N[C@@H](Cc1ccccn1)C(=O)O; Dap = NC[C@H](N)C(=O)O; azaGly = NNC(=O)O

Each compound was assayed against T1, human kiss1 receptor (GPR54) (Homo sapiens, UniProt Q969F8) (assay: Kiss1 receptor (GPR54) binding activity of agonists, FRET detection in NFAT-bla CHO-K1 cells). Conditions: GPR54; measured according to the method of effect Embodiment 1; preliminary data; read-out: Preliminary measurement data (GPR54) EC50.
T1 construct: host or cells: NFAT-bla CHO-K1 cells (Chinese hamster ovary), purchased recombinant cell line
T1 sequence (Q969F8 whole entry): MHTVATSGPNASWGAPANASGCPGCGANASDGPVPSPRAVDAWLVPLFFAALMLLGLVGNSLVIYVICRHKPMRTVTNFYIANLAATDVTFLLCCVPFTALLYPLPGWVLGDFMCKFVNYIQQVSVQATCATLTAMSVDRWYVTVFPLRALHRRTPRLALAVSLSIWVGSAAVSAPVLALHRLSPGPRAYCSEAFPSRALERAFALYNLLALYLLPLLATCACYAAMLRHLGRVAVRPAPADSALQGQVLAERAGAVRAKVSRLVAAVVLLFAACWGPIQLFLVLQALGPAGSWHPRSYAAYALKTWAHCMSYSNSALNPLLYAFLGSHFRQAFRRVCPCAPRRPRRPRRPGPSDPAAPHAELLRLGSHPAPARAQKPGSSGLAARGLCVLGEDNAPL
Assay type: cell-based

Structure (SMILES)	EC50 [nM]
CNC(=N)NCCC[C@H](NC(=O)C(CC(C)C)C(=S)NCNC(=O)[C@H](Cc1ccccc1)NC(=O)[C@@H](NC(=O)[C@H](CC(N)=O)NC(=O)[C@@H]1C[C@@H](O)CN1C(=O)[C@@H](Cc1ccc(O)cc1)NC(C)=O)[C@@H](C)O)C(=O)N[C@@H](Cc1c[nH]c2ccccc12)C(N)=O (single isomer, unassigned) [YA-254, Ac-(D-Tyr)-Hyp-Asn-Thr-Phe-ψ(NHCS)Gly-Leu-Arg(Me)-Trp-NH2]	0.03
CNC(=N)NCCC[C@H](NC(=O)C(CC(C)C)C(=S)NCNC(=O)[C@H](Cc1ccccc1)NC(=O)[C@@H](NC(=O)[C@H](CC(N)=O)NC(=O)[C@@H]1CC(F)(F)CN1C(=O)[C@@H](Cc1ccc(Cl)cc1Cl)NC(C)=O)[C@@H](C)O)C(=O)N[C@@H](Cc1c[nH]c2ccccc12)C(N)=O (single isomer, unassigned) [YA-255, Ac-[D-Phe(2,4-DiCl)]-DiFluorPro-Asn-Thr-Phe-ψ(NHCS) Gly-Leu-Arg(Me)-Trp-NH2]	0.028
CNC(=N)NCCC[C@H](NC(=O)C(CC(C)C)C(=O)NCNC(=O)[C@H](Cc1ccccc1)NC(=O)[C@@H](NC(=O)[C@H](CC(N)=O)NC(=O)[C@@H]1C[C@@H](O)CN1C(=O)[C@@H](Cc1ccc(O)cc1)NC(C)=O)[C@@H](C)O)C(=O)N[C@@H](Cc1c[nH]c2ccccc12)C(N)=O (single isomer, unassigned) [YA-303, Ac-(D-Tyr)-Hyp-Asn-Thr-Phe-ψ(NHCO)Gly-Leu-Arg(Me)-Trp-NH2]	0.01
CC(=O)N[C@@H](Cc1ccc(O)cc1)C(=O)N[C@@H](CC(N)=O)C(=O)N[C@@H](Cc1c[nH]c2ccccc12)C(=O)N[C@@H](CC(N)=O)C(=O)N[C@@H](CO)C(=O)N[C@@H](Cc1ccccc1)C(=O)NCC(=O)N[C@@H](CC(C)C)C(=O)N[C@@H](CCCNC(=N)N)C(=O)N[C@@H](Cc1ccccc1)C(N)=O [YA-2, Ac-Tyr-Asn-Trp-Asn-Ser-Phe-Gly-Leu-Arg-Phe-NH2]	10
CNC(=N)NCCC[C@H](NC(=O)[C@H](CC(C)C)NC(=O)NNC(=O)[C@H](Cc1ccccc1)NC(=O)[C@@H](NC(=O)[C@H](CC(N)=O)NC(=O)[C@@H]1C[C@@H](O)CN1C(=O)[C@@H](Cc1ccc(Cl)cc1Cl)NC(C)=O)[C@@H](C)O)C(=O)N[C@@H](Cc1c[nH]c2ccccc12)C(N)=O [YA-42, Ac-[D-Phe(2,4-DiCl)]-Hyp-Asn-Thr-Phe-azaGly-Leu-Arg(Me)-Trp-NH2] (Ac-[dPhe(2,4-Cl2)][Hyp]NTF[azaGly]L[Arg(Me)]W-NH2)	0.015
CNC(=N)NCCC[C@H](NC(=O)[C@H](CC(C)C)NC(=O)NNC(=O)[C@H](Cc1ccccc1)NC(=O)[C@@H](NC(=O)[C@H](CC(N)=O)NC(=O)[C@@H]1C[C@@H](O)CN1C(=O)[C@@H](Cc1ccco1)NC(C)=O)[C@@H](C)O)C(=O)N[C@@H](Cc1c[nH]c2ccccc12)C(N)=O [YA-43, Ac-(D-2Fua)-Hyp-Asn-Thr-Phe-azaGly-Leu-Arg(Me)-Trp-NH2] (Ac-[dAla(2-furyl)][Hyp]NTF[azaGly]L[Arg(Me)]W-NH2)	0.095
CNC(=N)NCCC[C@H](NC(=O)[C@H](CC(C)C)NC(=O)NNC(=O)[C@H](Cc1ccccc1)NC(=O)[C@@H](NC(=O)[C@H](CC(N)=O)NC(=O)[C@@H]1C[C@@H](O)CN1C(=O)[C@H](Cc1ccccn1)NC(C)=O)[C@@H](C)O)C(=O)N[C@@H](Cc1c[nH]c2ccccc12)C(N)=O [YA-68, Ac-2Pal-Hyp-Asn-Thr-Phe-azaGly-Leu-Arg(Me)-Trp-NH2] (Ac-[2Pal][Hyp]NTF[azaGly]L[Arg(Me)]W-NH2)	0.18

Same assay, conditions: NFAT-bla CHO-K1 cells that express human kiss1 receptor (GPR54); FRET; cells cultured with compound for 4 hours; read-out: GPR54 EC50/nM

Structure (SMILES)	EC50 [nM]
CC(=O)N[C@@H](Cc1ccc(O)cc1)C(=O)N[C@@H](CC(N)=O)C(=O)N[C@@H](Cc1c[nH]c2ccccc12)C(=O)N[C@@H](CC(N)=O)C(=O)N[C@@H](CO)C(=O)N[C@@H](Cc1ccccc1)C(=O)NCC(=O)N[C@@H](CC(C)C)C(=O)N[C@@H](CCCNC(=N)N)C(=O)N[C@@H](Cc1ccccc1)C(N)=O [YA-2, Ac-Tyr-Asn-Trp-Asn-Ser-Phe-Gly-Leu-Arg-Phe-NH2]	2.11

Same assay, conditions: Preliminary measurement data (GPR54) EC50, nM), GPR54; measured according to the method of effect Embodiment 1; preliminary data

Structure (SMILES)	EC50 [nM]
CNC(=N)NCCC[C@H](NC(=O)[C@H](CC(C)C)NC(=O)NNC(=O)[C@H](Cc1ccccc1)NC(=O)[C@@H](NC(=O)[C@H](CC(N)=O)NC(=O)[C@@H]1C[C@@H](O)CN1C(=O)[C@H](CNc1ccc([N+](=O)[O-])cc1[N+](=O)[O-])NC(C)=O)[C@@H](C)O)C(=O)N[C@@H](Cc1c[nH]c2ccccc12)C(N)=O [YA-41, Ac-Dap(Dnp)-Hyp-Asn-Thr-Phe-azaGly-Leu-Arg(Me)-Trp-NH2] (Ac-[Dap](Dnp)[Hyp]NTF[azaGly]L[Arg(Me)]W-NH2)	0.095
